The values below are quoted from earlier work in patent US20120070472A1, “CHRONOTHERAPEUTIC COMPOSITIONS AND METHODS OF THEIR USE” (Circ Pharma Research & Development Limited, priority 2004, published 2012).

The conditions of one data set: i/v.
For the compound `COc1ccccc1OCCNCC(O)COc1cccc2[nH]c3ccccc3c12` (stereo not drawn) [Carvedilol], the “Elimination Half-Life” value is 2.4 h.

Still in this data set, the particulars now being: in vivo.
For `NS(=O)(=O)c1cc2c(cc1Cl)N=CNS2(=O)=O` [Chlorothiazide], the “Elimination Half-Life” value was 1.5 h.
On to `NNc1nncc2ccccc12` [Hydralazine], for which the “Elimination Half-Life” value is listed as 1.0 h.
Take `CC(C)N(CCC(C(N)=O)(c1ccccc1)c1ccccn1)C(C)C` (stereo not drawn) [Disopyramide]: the “Elimination Half-Life” value is 6.0 h.
For `C=CCOc1ccccc1OCC(O)CNC(C)C` (stereo not drawn) [Oxprenolol], the “Elimination Half-Life” value was 2.5 h.
Regarding `CC(=O)S[C@@H]1CC2=CC(=O)CC[C@]2(C)[C@H]2CC[C@@]3(C)[C@@H](CC[C@@]34CCC(=O)O4)[C@H]12` [Spironolactone], the “Elimination Half-Life” value is 1.6 h.
On to `O=C(NCCO[N+](=O)[O-])c1cccnc1` [Nicorandil], for which the “Elimination Half-Life” value is listed as 1.1 h.
As to `NS(=O)(=O)c1cc2c(cc1Cl)NCNS2(=O)=O` [Hydrochlorothiazide], the “Elimination Half-Life” value is listed as 2.5 h.
Turning to `CC(C)NCC(O)COc1cccc2[nH]ccc12` (stereo not drawn) [Pindolol], the “Elimination Half-Life” value is listed as 3.6 h.
Take `CC(C)NCC(O)COc1cccc2ccccc12` (stereo not drawn) [Propranolol]: the “Elimination Half-Life” value was 3.9 h.
`COc1ccc([C@@H]2Sc3ccccc3N(CCN(C)C)C(=O)[C@@H]2OC(C)=O)cc1` [Diltiazem]: the “Elimination Half-Life” value was 3.7 h.
As for `CC(C)(C)NC[C@H](O)COc1nsnc1N1CCOCC1` [Timolol], the “Elimination Half-Life” value is recorded as 4.1 h.
As for `CC(CCc1ccccc1)NCC(O)c1ccc(O)c(C(N)=O)c1` (stereo not drawn) [Labetalol], the “Elimination Half-Life” value was 4.9 h.
For `COC(=O)C1=C(C)NC(C)=C(C(=O)OC(C)C)C1c1cccc2nonc12` (stereo not drawn) [Isradipine], the “Elimination Half-Life” value was 3.8 h.
With `CCN(CC)CCNC(=O)c1ccc(NC(C)=O)cc1` [n-Acetylprocainamide], the “Elimination Half-Life” value is given as 6.0 h.
Turning to `CCCC(=O)Nc1ccc(OCC(O)CNC(C)C)c(C(C)=O)c1` (stereo not drawn) [Acebutolol], the “Elimination Half-Life” value was 2.7 h.
For the compound `C=CCc1ccccc1OCC(O)CNC(C)C` (stereo not drawn) [Alprenolol], the “Elimination Half-Life” value is reported as 2.5 h.

Still in this data set, the particulars now being: po.
Take `COc1ccccc1OCCNCC(O)COc1cccc2[nH]c3ccccc3c12` (stereo not drawn) [Carvedilol]: the “Elimination Half-Life” value is on record as 6.4 h.
